Experimental data as given in patent US10875874B2, “Ginkgolide B derivative and preparation method and use thereof” (Chengdu Baiyu Ginkgolide Pharmaceuticals Co., Ltd., priority 2015, dated 2020).
In brackets after ≈: the same amount, converted by molar mass. Marks after values point to notes of the source that are not given here.

Tests used:
Water solubility test = conditions: purified water, thermodynamic from solid
Protocol: Measuring method: samples are ground to obtain fine powder, target compounds are quantitatively weighed, the weighed compounds are added into purified water, and the solubility of the compounds is investigated by ultrasonics.

[1] = test system: spontaneously hypertensive rats (SHR); test: Caudal artery systolic pressure of spontaneously hypertensive rats, 8 weeks of continuous medication; format: in vivo, rat; conditions: x ± s, n = 8
Method in brief: (§1)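 SHR rats of both sexes (200–250 g, 8/group) dosed intragastrically with 60 or 120 mg/kg/d, or captopril 27 mg/kg, once daily for 8 weeks; Wistar rats and vehicle SHR served as controls. Tail-cuff systolic pressure taken as the mean of 3 readings, measured before dosing and 30–120 min after the first dose, or 30 min post-dose on days 1–56 for chronic treatment.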

[2] = Weekly body weight of SHR rats; format: in vivo, rat
Method in brief: (§2)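 Male and female SHR rats (200-250 g, 8/group) dosed intragastrically once daily for 8 weeks with test compounds at 60 or 120 mg/kg/d or captopril 27 mg/kg; Wistar and SHR controls received distilled water. Body weight and food intake observed during treatment.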

[3] = Weekly food intake of SHR rats; format: in vivo, rat
Method in brief: as §2

[4] = test system: spontaneously hypertensive rats (SHR); test: Caudal artery systolic pressure of spontaneously hypertensive rats, single administration; format: in vivo, rat; conditions: x ± s, n = 8
Method in brief: as §1

[5] = 60 mg/kg/d intragastric continuous, 1 d, 30 min after administration
[6] = 60 mg/kg/d intragastric continuous, 7 d, 30 min after administration
[7] = 60 mg/kg/d intragastric continuous, 13 d, 30 min after administration
[8] = 60 mg/kg/d intragastric continuous, 19 d, 30 min after administration
[9] = 60 mg/kg/d intragastric continuous, 25 d, 30 min after administration
[10] = 60 mg/kg/d intragastric continuous, 35 d, 30 min after administration
[11] = 60 mg/kg/d intragastric continuous, 49 d, 30 min after administration
[12] = 60 mg/kg/d intragastric continuous, 56 d, 30 min after administration
[13] = 60 mg/kg/d intragastric continuous, before administration
[14] = 120 mg/kg/d intragastric continuous, 1 d, 30 min after administration
[15] = 120 mg/kg/d intragastric continuous, 7 d, 30 min after administration
[16] = 120 mg/kg/d intragastric continuous, 13 d, 30 min after administration
[17] = 120 mg/kg/d intragastric continuous, 19 d, 30 min after administration
[18] = 120 mg/kg/d intragastric continuous, 25 d, 30 min after administration
[19] = 120 mg/kg/d intragastric continuous, 35 d, 30 min after administration
[20] = 120 mg/kg/d intragastric continuous, 49 d, 30 min after administration
[21] = 120 mg/kg/d intragastric continuous, 56 d, 30 min after administration
[22] = 120 mg/kg/d intragastric continuous, before administration
[23] = 60 mg/kg/d intragastric, week 0
[24] = 60 mg/kg/d intragastric, week 1
[25] = 60 mg/kg/d intragastric, week 2
[26] = 60 mg/kg/d intragastric, week 3
[27] = 60 mg/kg/d intragastric, week 4
[28] = 60 mg/kg/d intragastric, week 5
[29] = 60 mg/kg/d intragastric, week 6
[30] = 60 mg/kg/d intragastric, week 7
[31] = 60 mg/kg/d intragastric, week 8
[32] = 120 mg/kg/d intragastric, week 0
[33] = 120 mg/kg/d intragastric, week 1
[34] = 120 mg/kg/d intragastric, week 2
[35] = 120 mg/kg/d intragastric, week 3
[36] = 120 mg/kg/d intragastric, week 4
[37] = 120 mg/kg/d intragastric, week 5
[38] = 120 mg/kg/d intragastric, week 6
[39] = 120 mg/kg/d intragastric, week 7
[40] = 120 mg/kg/d intragastric, week 8
[41] = 60 mg/kg intragastric single administration, 30 min
[42] = 60 mg/kg intragastric single administration, 60 min
[43] = 60 mg/kg intragastric single administration, 90 min
[44] = 60 mg/kg intragastric single administration, 120 min
[45] = 60 mg/kg intragastric single administration, before administration
[46] = 120 mg/kg intragastric single administration, 30 min
[47] = 120 mg/kg intragastric single administration, 60 min
[48] = 120 mg/kg intragastric single administration, 90 min
[49] = 120 mg/kg intragastric single administration, 120 min
[50] = 120 mg/kg intragastric single administration, before administration

Compound: CCCCC(OC(C)=O)c1ccccc1C(=O)O[C@H]1C(=O)O[C@H]2O[C@]34C(=O)OC5C[C@@H](C(C)(C)C)C21[C@@]53[C@@H](O)[C@@H]1OC(=O)[C@@H](C)[C@@]14O (stereo partly shown) [BD]
- solubility (Water solubility test): 250 µg/mL (≈ 381 µM)
- Systolic pressure [1, 5]: 156.20 ± 13.41 mmHg
- Systolic pressure [1, 6]: 152.95 ± 11.03 mmHg
- Systolic pressure [1, 7]: 155.74 ± 15.25 mmHg
- Systolic pressure [1, 8]: 153.01 ± 14.04 mmHg
- Systolic pressure [1, 9]: 152.30 ± 10.45 mmHg
- Systolic pressure [1, 10]: 157.03 ± 14.08 mmHg
- Systolic pressure [1, 11]: 153.96 ± 14.74 mmHg
- Systolic pressure [1, 12]: 154.57 ± 12.48 mmHg
- Systolic pressure [1, 13]: 163.64 ± 14.02 mmHg
- Systolic pressure [1, 14]: 150.49 ± 15.34 mmHg
- Systolic pressure [1, 15]: 152.64 ± 11.45 mmHg
- Systolic pressure [1, 16]: 147.33 ± 13.42 mmHg
- Systolic pressure [1, 17]: 145.49 ± 12.98 mmHg
- Systolic pressure [1, 18]: 147.66 ± 14.02 mmHg
- Systolic pressure [1, 19]: 145.61 ± 9.47 mmHg
- Systolic pressure [1, 20]: 148.62 ± 12.04 mmHg
- Systolic pressure [1, 21]: 142.15 ± 13.14 mmHg
- Systolic pressure [1, 22]: 164.57 ± 13.25 mmHg
- Body weight [2, 23]: 229.2 g
- Body weight [2, 24]: 234.5 g
- Body weight [2, 25]: 247.1^▴▴ g
- Body weight [2, 26]: 252.2 g
- Body weight [2, 27]: 257.2 g
- Body weight [2, 28]: 262.4 g
- Body weight [2, 29]: 270.4^▴ g
- Body weight [2, 30]: 280.2^▴▴ g
- Body weight [2, 31]: 290.5^▴▴ g
- Body weight [2, 32]: 230.9 g
- Body weight [2, 33]: 252.0^▴▴ g
- Body weight [2, 34]: 257.5^▴▴ g
- Body weight [2, 35]: 263.9^▴▴ g
- Body weight [2, 36]: 270.8^▴▴ g
- Body weight [2, 37]: 281.2^▴▴ g
- Body weight [2, 38]: 291.0^▴▴ g
- Body weight [2, 39]: 304.7^▴▴ g
- Body weight [2, 40]: 321.7^▴▴ g
- Average dairy food intake [3, 23]: 18.7 g/day
- Average dairy food intake [3, 24]: 19.0^▴ g/d
- Average dairy food intake [3, 25]: 19.4^▴ g/d
- Average dairy food intake [3, 26]: 19.8^▴ g/d
- Average dairy food intake [3, 27]: 20.0^▴▴ g/d
- Average dairy food intake [3, 28]: 21.3^▴▴ g/d
- Average dairy food intake [3, 29]: 22.6^▴▴ g/d
- Average dairy food intake [3, 30]: 24.3^▴▴ g/d
- Average dairy food intake [3, 31]: 25.0^▴▴ g/d
- Average dairy food intake [3, 32]: 18.3 g/day
- Average dairy food intake [3, 33]: 20.1^▴ g/d
- Average dairy food intake [3, 34]: 20.6^▴▴ g/d
- Average dairy food intake [3, 35]: 21.0^▴▴ g/d
- Average dairy food intake [3, 36]: 21.5^▴▴ g/d
- Average dairy food intake [3, 37]: 22.8^▴▴ g/d
- Average dairy food intake [3, 38]: 23.9^▴▴ g/d
- Average dairy food intake [3, 39]: 25.4^▴▴ g/d
- Average dairy food intake [3, 40]: 26.9^▴▴ g/d
- Systolic pressure [4, 41]: 157.74 ± 9.28 mmHg
- Systolic pressure [4, 42]: 152.67 ± 13.52 mmHg
- Systolic pressure [4, 43]: 151.60 ± 12.04 mmHg
- Systolic pressure [4, 44]: 155.68 ± 10.15 mmHg
- Systolic pressure [4, 45]: 163.64 ± 14.02 mmHg
- Systolic pressure [4, 46]: 148.47 ± 10.87 mmHg
- Systolic pressure [4, 47]: 151.75 ± 10.68 mmHg
- Systolic pressure [4, 48]: 157.25 ± 14.38 mmHg
- Systolic pressure [4, 49]: 160.49 ± 14.76 mmHg
- Systolic pressure [4, 50]: 164.57 ± 13.25 mmHg

Compound: C[C@@H]1C(=O)O[C@H]2[C@H](O)[C@@]34C5C[C@@H](C(C)(C)C)C36[C@@H](OC(=O)[C@@H]6OC(=O)[C@H](c3ccccc3Cl)N3CCc6sccc6C3)O[C@@]4(C(=O)O5)[C@@]12O (stereo partly shown) [BL]
- solubility (Water solubility test): 200 µg/mL (≈ 280 µM)
- Systolic pressure [1, 5]: 154.08 ± 11.54 mmHg
- Systolic pressure [1, 6]: 156.92 ± 9.82 mmHg
- Systolic pressure [1, 7]: 156.07 ± 8.52 mmHg
- Systolic pressure [1, 8]: 153.96 ± 11.07 mmHg
- Systolic pressure [1, 9]: 154.57 ± 9.74 mmHg
- Systolic pressure [1, 10]: 153.67 ± 11.58 mmHg
- Systolic pressure [1, 11]: 149.68 ± 10.42 mmHg
- Systolic pressure [1, 12]: 153.62 ± 9.47 mmHg
- Systolic pressure [1, 13]: 165.68 ± 16.35 mmHg
- Systolic pressure [1, 14]: 153.56 ± 8.15 mmHg
- Systolic pressure [1, 15]: 152.74 ± 10.25 mmHg
- Systolic pressure [1, 16]: 149.52 ± 10.24 mmHg
- Systolic pressure [1, 17]: 149.05 ± 11.09 mmHg
- Systolic pressure [1, 18]: 147.09 ± 12.68 mmHg
- Systolic pressure [1, 19]: 147.52 ± 10.64 mmHg
- Systolic pressure [1, 20]: 150.94 ± 11.06 mmHg
- Systolic pressure [1, 21]: 149.76 ± 12.63 mmHg
- Systolic pressure [1, 22]: 164.25 ± 11.69 mmHg
- Body weight [2, 23]: 230.9 g
- Body weight [2, 24]: 236.4 g
- Body weight [2, 25]: 243.1 g
- Body weight [2, 26]: 252.8 g
- Body weight [2, 27]: 260.9^▴▴ g
- Body weight [2, 28]: 265.8^▴▴ g
- Body weight [2, 29]: 270.6^▴ g
- Body weight [2, 30]: 277.3^▴▴ g
- Body weight [2, 31]: 285.4^▴▴ g
- Body weight [2, 32]: 230.6 g
- Body weight [2, 33]: 251.8^▴▴ g
- Body weight [2, 34]: 257.3^▴▴ g
- Body weight [2, 35]: 264.1^▴▴ g
- Body weight [2, 36]: 270.5^▴▴ g
- Body weight [2, 37]: 281.7^▴▴ g
- Body weight [2, 38]: 290.3^▴▴ g
- Body weight [2, 39]: 302.8^▴▴ g
- Body weight [2, 40]: 315.2^▴▴ g
- Average dairy food intake [3, 23]: 18.4 g/day
- Average dairy food intake [3, 24]: 19.4^▴ g/d
- Average dairy food intake [3, 25]: 20.5^▴▴ g/d
- Average dairy food intake [3, 26]: 21.0^▴▴ g/d
- Average dairy food intake [3, 27]: 20.9^▴▴ g/d
- Average dairy food intake [3, 28]: 21.9^▴▴ g/d
- Average dairy food intake [3, 29]: 23.5^▴▴ g/d
- Average dairy food intake [3, 30]: 24.5^▴▴ g/d
- Average dairy food intake [3, 31]: 25.1^▴▴ g/d
- Average dairy food intake [3, 32]: 18.6 g/day
- Average dairy food intake [3, 33]: 20.0^▴ g/d
- Average dairy food intake [3, 34]: 20.8^▴▴ g/d
- Average dairy food intake [3, 35]: 21.9^▴▴ g/d
- Average dairy food intake [3, 36]: 22.7^▴▴ g/d
- Average dairy food intake [3, 37]: 23.5^▴▴ g/d
- Average dairy food intake [3, 38]: 24.6^▴▴ g/d
- Average dairy food intake [3, 39]: 25.1^▴▴ g/d
- Average dairy food intake [3, 40]: 26.7^▴▴ g/d
- Systolic pressure [4, 41]: 158.36 ± 10.54 mmHg
- Systolic pressure [4, 42]: 154.68 ± 12.48 mmHg
- Systolic pressure [4, 43]: 152.74 ± 12.58 mmHg
- Systolic pressure [4, 44]: 152.04 ± 10.02 mmHg
- Systolic pressure [4, 45]: 165.68 ± 16.35 mmHg
- Systolic pressure [4, 46]: 148.01 ± 5.98 mmHg
- Systolic pressure [4, 47]: 151.36 ± 9.45 mmHg
- Systolic pressure [4, 48]: 152.95 ± 12.54 mmHg
- Systolic pressure [4, 49]: 151.98 ± 9.26 mmHg
- Systolic pressure [4, 50]: 164.25 ± 11.69 mmHg
